Structures can show the parent of a compound that is named as a salt.
Tests used:
Dopamine D2 receptor = target: T1, Dopamine D2 receptor (Homo sapiens, UniProt P14416); assay: Dopamine D2 receptor binding assay ([125I]iodospiperone); details: [125I]iodospiperone 0.1 nM, D2 receptor membranes, 2 hours at room temperature; read-out: Relative D2 Receptor Binding Affinity Ki
T1 construct: purchased Receptor Biology (now owned by NEN) RBHD2CM
Method: Serotonin 5-HT6 and Dopamine D2 Binding Assay Protocol
The assay buffers used are 50 mM Tris-HCl pH 7.4, 120 mM NaCl, 5 mM KCl, 5 mM MgCl2, 1 mM EDTA for the Dopamine D2s receptor binding assay. […] The membranes used are from Receptor Biology (now owned by NEN), Cat #RBHD2CM for the D2 receptor.
Compounds are obtained as 10 mM stocks in 100% DMSO. They are diluted to 1 mM in 100% DMSO by adding 180 μL DMSO to 20 μL of stock in 96 well plates using a multidrop. […] This is done using a TECAN robot.
The radioligand is diluted in assay buffer to provide 0.1 nM for the D2 assay. Each vial of membranes is diluted up to 92 mL in assay buffer. The final assay volume is 250 μL consisting of 210 μl of diluted membranes, 20 μL of compound or 10% DMSO for total binding, and 20 μL of diluted radioligand. The compounds are transferred from drug dilution plates into coming 96 well assay plates using a 96 well Multimek pipettor. Radioligand and membranes are added to assay plates using multidrop pipettors. Non-specific binding is determined in wells containing a final concentration of 5 μM haloperidol. The final drug concentration range in half logs is from 10 μM down to 0.1 nM.
After addition of drug, membrane, and ligand, the plates are incubated for 2 hours at room temperature. During this time 96 well Millipore filter plates (MAFBNOB50) are soaked for a least 30 minutes with 200 μL per well of 0.5% polyethyleneimine.
The 0.5% PEI is removed from filterplate wells using a TiterTek MAP aspirator and 200 μL of the incubation mixture is transferred from the incubation plate to the filterplate after mixing. This transfer is done using the 96 tip Mutimek pipettor. After transfer to the filterplate filterplates are extracted and ished twice with 220 μL per well of cold buffer on the MAP aspirator. The peel away bottoms are removed from the filterplates and 60 μL per well of microscint 20 scintillation fluid is added per well using a multidrop. Plates are placed into suitable holders and are left at room temperature for 3 hours and are counted for ^3H in either a Wallac Microbeta counter or on a Packard Topcount.

T1 sequence (P14416 1-414 isoform P14416-2): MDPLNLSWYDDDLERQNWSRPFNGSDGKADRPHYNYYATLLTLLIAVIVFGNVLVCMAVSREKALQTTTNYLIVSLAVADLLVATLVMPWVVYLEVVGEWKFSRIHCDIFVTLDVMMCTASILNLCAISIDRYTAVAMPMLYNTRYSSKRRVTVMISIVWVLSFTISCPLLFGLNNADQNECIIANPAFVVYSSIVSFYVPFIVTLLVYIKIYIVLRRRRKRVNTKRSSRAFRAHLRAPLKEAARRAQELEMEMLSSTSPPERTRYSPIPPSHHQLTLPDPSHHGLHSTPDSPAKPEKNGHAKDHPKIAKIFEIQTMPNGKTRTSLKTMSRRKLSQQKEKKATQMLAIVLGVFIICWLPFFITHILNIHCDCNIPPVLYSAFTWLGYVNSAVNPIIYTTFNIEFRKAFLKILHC

Compound | Ki (Dopamine D2 receptor) [nM] | melting point
Cc1cc2c(s1)Nc1ccccc1N=C2N1CCN[C@@H](Cc2cccc(Cl)c2)C1 [Example 87] | 10 to 100 | –
Cc1cc2c(s1)Nc1ccccc1N=C2N1CCN[C@@H](Cc2cc(F)cc(F)c2)C1 [Example 88] | < 10 | –
Cc1cc2c(s1)Nc1ccccc1N=C2N1CCN(C)[C@@H](Cc2cccc(Cl)c2)C1 [Example 119] | 10 to 100 | –
Cc1cc2c(s1)Nc1ccccc1N=C2N1CCN[C@@H](CCc2ccc(F)cc2)C1 [Example 176, 10-((S)-3-(2-(4-Fluorophenyl)-ethyl)-piperazin-1-yl)-2-methyl-4H-3-thia-4,9-diaza-benzo[f]azulene dihydrochloride] | 10 to 100 | –
Cc1cc2c(s1)Nc1ccccc1N=C2N1CCN[C@@H](CCc2cccc(F)c2)C1 [Example 177, 10-((S)-3-(2-(3-Fluoro-phenyl)-ethyl)-piperazin-1-yl))-2-methyl-4H-3-thia-4,9-diaza-benzo[f]azulene dihydrochloride] | 10 to 100 | –
Cc1cc2c(s1)Nc1ccccc1N=C2N1CCN[C@@H](CCc2ccccc2F)C1 [Example 178, 10-((S)-3-(2-(2-Fluoro-phenyl)-ethyl)-piperazin-1-yl)-2-methyl-4H-3-thia-4,9-diaza-benzo[f]azulene dihydrochloride] | 10 to 100 | –
COc1ccc(CC[C@H]2CN(C3=Nc4ccccc4Nc4sc(C)cc43)CCN2)cc1 [Example 179, 10-((S)-3-(2-(4-methoxy-phenyl)-ethyl)-piperazin-1-yl)-2-methyl-4H-3-thia-4,9-diaza-benzo[f]azulene dihydrochloride] | < 10 | –
COc1cccc(CC[C@H]2CN(C3=Nc4ccccc4Nc4sc(C)cc43)CCN2)c1 [Example 180, 10-((S)-3-(2-(3-Methoxy-phenyl)-ethyl)-piperazin-1-yl)-2-methyl-4H-3-thia-4,9-diaza-benzo[f]azulene dihydrochloride] | < 10 | –
COc1ccccc1CC[C@H]1CN(C2=Nc3ccccc3Nc3sc(C)cc32)CCN1 [Example 181, 10-((S)-3-(2-(2-Methoxy-phenyl)-ethyl)-piperazin-1-yl)-2-methyl-4H-3-thia-4,9-diaza-benzo[f]azulene dihydrochloride] | 10 to 100 | –
Cc1cc2c(s1)Nc1ccccc1N=C2N1CCN(C)[C@@H](CCc2ccc(F)cc2)C1 [Example 182, 10-((S)-3-(2-(4-Fluoro-phenyl)-ethyl]-4-methyl-piperazin-1-yl)-2-methyl-4H-3-thia-4,9-diaza-benzo[f]azulene dihydrochloride] | 10 to 100 | –
Cc1cc2c(s1)Nc1ccccc1N=C2N1CCN(C)[C@@H](CCc2cccc(F)c2)C1 [Example 183, 10-((S)-3-(2-(3-Fluoro-phenyl)-ethyl)-4-methyl-piperazin-1-yl)-2-methyl-4H-3-thia-4,9-diaza-benzo[f]azulene dihydrochloride] | 10 to 100 | –
Cc1cc2c(s1)Nc1ccccc1N=C2N1CCN(C)[C@@H](CCc2ccccc2F)C1 [Example 184, 10-((S)-3-(2-(2-Fluoro-phenyl)-ethyl)-4-methyl-piperazin-1-yl)-2-methyl-4H-3-thia-4,9-diaza-benzo[f]azulene dihydrochloride] | 10 to 100 | –
Cc1cc2c(s1)Nc1ccccc1N=C2N1CCN(C)[C@@H](CCc2cccc(Cl)c2)C1 [Example 391, 10-((S)-3-[2-(3-Chloro-phenyl)-ethyl]-4-methyl-piperazin-1-yl)-2-methyl-4H-3-thia-4,9-diaza-benzo[f]azulene] | – | 69 °C (dec.)
Cc1cc2c(s1)Nc1ccccc1N=C2N1CCN(C)[C@@H](CCc2ccccc2Cl)C1 [Example 392, 10-((S)-3-[2-(2-Chloro-phenyl)-ethyl]-4-methyl-piperazin-1-yl)-2-methyl-4H-3-thia-4,9-diaza-benzo[f]azulene] | – | 72 °C (dec.)

More lines, now with the values ahead:

Ki (Dopamine D2 receptor) [nM] | melting point | Compound
– | 78 °C (dec.) | Cc1cc2c(s1)Nc1ccccc1N=C2N1CCN[C@@H](CCc2ccc(C(F)(F)F)cc2)C1 [Example 393, 10-((S)-3-[2-(4-Trifluoromethyl-phenyl)-ethyl]-piperazin-1-yl)-2-methyl-4H-3-thia-4,9-diaza-benzo[f]azulene]
– | 73 °C (dec.) | Cc1cc2c(s1)Nc1ccccc1N=C2N1CCN[C@@H](CCc2ccccc2C(F)(F)F)C1 [Example 394, 10-((S)-3-[2-(2-Trifluoromethyl-phenyl)-ethyl]-piperazin-1-yl)-2-methyl-4H-3-thia-4,9-diaza-benzo[f]azulene]
– | 69 °C (dec.) | Cc1cc2c(s1)Nc1ccccc1N=C2N1CCN[C@@H](CCc2cccc(C(F)(F)F)c2)C1 [Example 395, 10-((S)-3-[2-(3-Trifluoromethyl-phenyl)-ethyl]-piperazin-1-yl)-2-methyl-4H-3-thia-4,9-diaza-benzo[f]azulene]
– | 72 °C (dec.) | Cc1cc2c(s1)Nc1ccccc1N=C2N1CCN(C)[C@@H](CCc2ccc(C(F)(F)F)cc2)C1 [Example 396, 10-((S)-3-[2-(4-Trifluoromethyl-phenyl)-ethyl]-4-methyl-piperazin-1-yl)-2-methyl-4H-3-thia-4,9-diaza-benzo[f]azulene]
– | 68 °C (dec.) | Cc1cc2c(s1)Nc1ccccc1N=C2N1CCN(C)[C@@H](CCc2ccccc2C(F)(F)F)C1 [Example 397, 10-((S)-3-[2-(2-Trifluoromethyl-phenyl)-ethyl]-4-methyl-piperazin-1-yl)-2-methyl-4H-3-thia-4,9-diaza-benzo[f]azulene]
– | 69 °C (dec.) | Cc1cc2c(s1)Nc1ccccc1N=C2N1CCN[C@@H](CCc2ccc(F)cc2F)C1 [Example 399, 10-((S)-3-[2-(2,4-Difluoro-phenyl)-ethyl]-piperazin-1-yl)-2-methyl-4H-3-thia-4,9-diaza-benzo[f]azulene]
– | 93 to 96 °C | CC(C)(C)c1cc2c(s1)Nc1ccccc1N=C2N1CCN[C@@H](CCc2ccccc2)C1 [Example 445, (S)-2-tert-Butyl-10-(3-phenethyl-piperazin-1-yl)-4H-3-thia-4,9-diaza-benzo[f]azulene]
– | 250 to 252 °C | Cc1nc2c(s1)Nc1ccccc1N=C2N1CCN[C@@H](Cc2ccccc2)C1 [Example 462]
– | 84 °C (dec.) | Cc1ccc2c(c1)Nc1ccccc1N=C2N1CCN(C)CC1 [Example 574, 3-Methyl-11-(4-methyl-piperazin-1-yl)-3-methyl-5H-dibenzo[b,e][1,4]diazepine]
– | 64 to 80 °C | Cc1ccc2c(c1)Nc1ccccc1N=C2N1CCN[C@@H](CCc2ccccc2)C1 [Example 575, 3-Methyl-11-[(S)-3-phenethyl-piperazin-1-yl]-5H-dibenzo[b,e][1,4]diazepine]
– | 65 °C (dec.) | Cc1ccc2c(c1)Nc1ccccc1N=C2N1CCN(C)[C@@H](CCc2ccccc2)C1 [Example 576, 3-Methyl-11-[4-methyl-(S)-3-phenethyl-piperazin-1-yl]-5H-dibenzo[b,e][1,4]diazepine]
– | 81 °C (dec.) | Cc1ccc2c(c1)Nc1ccccc1N=C2N1CCN[C@@H](CCc2cccc(F)c2)C1 [Example 577, 11-{(S)-3-[2-(3-Fluoro-phenyl)-ethyl]-piperazin-1-yl}-3-methyl-5H-dibenzo[b,e][1,4]diazepine]
– | 63 °C (dec.) | Cc1ccc2c(c1)Nc1ccccc1N=C2N1CCN(C)[C@@H](CCc2cccc(F)c2)C1 [Example 578, 11-{(S)-3-[2-(3-Fluoro-phenyl)-ethyl]-4-methyl-piperazin-1-yl}-3-methyl-5H-dibenzo[b,e][1,4]diazepine]
– | 170 to 177 °C (dec.) | Cc1ccc2c(c1)C(N1CCN(C)CC1)=Nc1ccccc1N2 [Example 579]
– | 67 °C (dec.) | Cc1ccc2c(c1)C(N1CCN[C@@H](CCc3ccccc3)C1)=Nc1ccccc1N2 [Example 580, 2-Methyl-11-[(S)-3-phenethyl-piperazin-1-yl]-5H-dibenzo[b,e][1,4]diazepine]
– | 65 °C (dec.) | Cc1ccc2c(c1)C(N1CCN(C)[C@@H](CCc3ccccc3)C1)=Nc1ccccc1N2 [Example 581, 2-Methyl-11-[4-methyl-(S)-3-phenethyl-piperazin-1-yl]-5H-dibenzo[b,e][1,4]diazepine]
– | 79 to 92 °C | Clc1ccc2c(c1)N=C(N1CCN[C@@H](Cc3ccccc3)C1)c1ccccc1N2 [Example 585, 11-(3-(S)-Benzyl-piperazin-1-yl)-8-chloro-5H-dibenzo[b,e][1,4]diazepine]
– | 68 to 72 °C | CN1CCN(C2=Nc3ccccc3Nc3ccc(C(F)(F)F)cc32)CC1 [Example 606, 11-(4-Methyl-piperazin-1-yl)-2-trifluoromethyl-5H-dibenzo[b,e][1,4]diazepine]
